# Values quoted from earlier work as cited in patent US20250235578A1, “WOUND DRESSING COMPOSITIONS AND METHODS OF USE AND PREPARATION THEROF” (T.J.Smith and Nephew,Limited, priority 2021, published 2025).
# Conditions: under normal conditions
smiles,measurement,value
"[N]=O [NO, nitric oxide]",maximum solubility in water,approximately 1.7 mM
